Results from article PMC5627448, “Pharmacokinetics of carfilzomib in patients with advanced malignancies and varying degrees of hepatic impairment: an open-label, single-arm, phase 1 study” (Experimental Hematology & Oncology, 2017).

Assays:
[1] = Plasma pharmacokinetics of carfilzomib and its major metabolites after 30-min IV infusion in patients with normal or impaired hepatic function; settings: human, in vivo
Description: This was a phase 1, multicenter, open-label, nonrandomized, comparative PK study of carfilzomib in patients with normal hepatic function or mild-to-moderate hepatic impairment. The study was conducted at 12 sites in the USA, United Kingdom, France, and the Netherlands. […] Exploratory objectives included evaluation of overall response rate (ORR) and duration of response (DOR).
Patients received carfilzomib as a 30-min IV infusion on days 1, 2, 8, 9, 15, and 16 of 28-day cycles (Fig. 1). All patients were to receive doses of 20 mg/m^2 on days 1 and 2 of cycle 1. […]
Blood samples were collected to measure PK and plasma concentration of carfilzomib and its major metabolites (PR-389/M14, PR-413/M15, and PR-519/M16). […] Safety was assessed throughout the study and included the monitoring of adverse events (AEs) using National Cancer Institute-Common Terminology Criteria for Adverse Events, version 4.03 (NCI-CTCAE v4.03), clinical laboratory evaluations, and vital signs; echocardiograms and physical examinations were also performed. The exact type and frequency of disease or tumor response assessments depended upon tumor type and was assessed by the investigator using the appropriate measure for the underlying malignancy, including Response Evaluation Criteria in Solid Tumours version 1.1. […]

[2] = Safety: treatment-emergent adverse events, discontinuations and deaths (NCI-CTCAE v4.03) in patients by hepatic function; assay type: in vivo, human
Description: (§1) Blood samples were collected to measure PK and plasma concentration of carfilzomib and its major metabolites (PR-389/M14, PR-413/M15, and PR-519/M16). Samples were collected on day 16 of cycle 1 and day 1 of cycle 2 (or on subsequent infusion days when the intended dose levels were administered) before infusion; at 15 min after start of infusion; within 2 min before end of infusion; and at 5, 15, and 30 min (±2 min for each); and at 1, 2, and 4 h (±5 min for each) after end of the infusion (Fig. 1). Safety was assessed throughout the study and included the monitoring of adverse events (AEs) using National Cancer Institute-Common Terminology Criteria for Adverse Events, version 4.03 (NCI-CTCAE v4.03), clinical laboratory evaluations, and vital signs; echocardiograms and physical examinations were also performed. The exact type and frequency of disease or tumor response assessments depended upon tumor type and was assessed by the investigator using the appropriate measure for the underlying malignancy, including Response Evaluation Criteria in Solid Tumours version 1.1.
(§2) Safety was assessed for patients who received any carfilzomib dose. AEs were mapped to a preferred term and system organ class using MedDRA and were graded using the NCI-CTCAE v4.03. ORR was summarized along with 95% exact binomial CIs by cohorts.

[3] = test system: relapsed or progressive advanced malignancies; assay: Efficacy: best overall response as determined by investigator (RECIST 1.1 / IMWG-URC); assay type: in vivo, human; settings: for Best overall response: complete response / Best overall response: partial response / Best overall response: progressive disease / Best overall response: stable disease / Best overall response: not evaluable: response-evaluable population
Description: as §1
For multiple myeloma patients, efficacy was assessed on day 1 of each cycle during treatment. For solid tumor patients, efficacy was assessed on day 1 of every other cycle [i.e., on day 1 (±7 days) of cycles 3, 5, 7, 9, etc.] during treatment.
as §2

[4] = cited from earlier work
From the text: Carfilzomib is an irreversible, proteasome inhibitor approved in the United States of America (USA) and Europe for the treatment of relapsed or refractory multiple myeloma in combination with lenalidomide + dexamethasone or with dexamethasone alone. […] In the normal hepatic function cohort, one outlier contributed to the extremely high variability. […] [6].

[5] = normal hepatic function, n = 11
[6] = normal hepatic function, n = 10
[7] = IV administration, patients with solid tumors

CC(C)C[C@H](NC(=O)[C@H](CCc1ccccc1)NC(=O)CN1CCOCC1)C(=O)N[C@@H](Cc1ccccc1)C(=O)N[C@@H](CC(C)C)C(=O)[C@@]1(C)CO1 [carfilzomib]
Higher carfilzomib AUC vs. normal hepatic function patients [1]: 20–50% | Mean T1/2 [1]: 30 to 42 min | Deaths considered related to treatment ([2]; both in mild hepatic impairment group: gastrointestinal hemorrhage and acute respiratory distress syndrome): Two | AE resulting in treatment discontinuation: increased blood bilirubin ([2]; human, in vivo): 2 patients | AE resulting in treatment discontinuation: pneumonitis ([2]; human, in vivo): one | Grade ≥3 AEs considered related to treatment, patients ([2]; human, in vivo): 33% | Grade ≥3 AEs, patients ([2]; human, in vivo): 76% | Serious AE: acute kidney injury ([2]; human, in vivo): three | Serious AE: anemia ([2]; human, in vivo): two | Serious AE: ascites ([2]; human, in vivo): three | Serious AE: hepatic encephalopathy ([2]; human, in vivo): two | Serious AE: increased blood bilirubin ([2]; human, in vivo): two | Serious AE: lower respiratory tract infection ([2]; human, in vivo): two | Serious AE: pneumonia ([2]; human, in vivo): two | Serious AE: sepsis ([2]; human, in vivo): three | Treatment-emergent AEs, patients ([2]; human, in vivo): 98% | Treatment discontinuation due to death ([2]; mild impairment, n = 17): 2 n | Treatment discontinuation due to disease progression ([2]; mild impairment, n = 17): 13 n | Treatment discontinuation due to death ([2]; moderate impairment, n = 14): 1 n | Treatment discontinuation due to disease progression ([2]; moderate impairment, n = 14): 7 n | Treatment discontinuation due to death [2, 5]: 1 n | Treatment discontinuation due to disease progression [2, 5]: 7 n | Deaths within 30 days after the last dose ([2]; safety population): Nine | Treatment discontinuation due to death ([2]; severe impairment, n = 4): 2 n | Treatment discontinuation due to disease progression ([2]; severe impairment, n = 4): 2 n | Treatment discontinuation due to death ([2]; total, N = 46): 6 n | Treatment discontinuation due to disease progression ([2]; total, N = 46): 29 n | Deaths among severe hepatic impairment patients ([2]; two progressive disease, two fatal AEs unrelated to treatment): four | Best overall response: complete response ([3]; mild impairment, n = 15): 0 (0.0) n (%) | Best overall response: partial response ([3]; mild impairment, n = 15): 0 (0.0) n (%) | Best overall response: progressive disease ([3]; mild impairment, n = 15): 12 (80.0) n (%) | Best overall response: stable disease ([3]; mild impairment, n = 15): 1 (6.7) n (%) | Best overall response: complete response ([3]; moderate impairment, n = 9): 0 (0.0) n (%) | Best overall response: not evaluable ([3]; moderate impairment, n = 9): 3 (33.3) n (%) | Best overall response: partial response ([3]; moderate impairment, n = 9): 0 (0.0) n (%) | Best overall response: progressive disease ([3]; moderate impairment, n = 9): 4 (44.4) n (%) | Best overall response: stable disease ([3]; moderate impairment, n = 9): 2 (22.2) n (%) | Best overall response: complete response [3, 6]: 0 (0.0) n (%) | Best overall response: not evaluable [3, 6]: 0 (0.0) n (%) | Best overall response: partial response [3, 6]: 1 (10.0) n (%) | Best overall response: progressive disease [3, 6]: 5 (50.0) n (%) | Best overall response: stable disease [3, 6]: 4 (40.0) n (%) | DOR of partial response ([3]; one multiple myeloma patient with normal hepatic function): ≥ 3 months | ORR ([3]; overall study population, n = 34, 95% CI 0.1–15.3%): 2.9% | Best overall response: complete response ([3]; total, n = 34): 0 (0.0) n (%) | Best overall response: not evaluable ([3]; total, n = 34): 5 (14.7) n (%) | Best overall response: partial response ([3]; total, n = 34): 1 (2.9) n (%) | Best overall response: progressive disease ([3]; total, n = 34): 21 (61.8) n (%) | Best overall response: stable disease ([3]; total, n = 34): 7 (20.6) n (%) | Cmax, historical data ([4]; 56 mg/m^2, geometric mean (geometric CV%)): 2079 (44%) ng/mL | Estimated clearance [4, 7]: high and exceeds hepatic blood flow | Time within which most of the drug is eliminated from the plasma compartment [4, 7]: ≤ 30 min | Difference in PK parameters, mild hepatic impairment vs normal hepatic function ([4]; population PK analysis, mild N = 143, normal N = 474): no statistically significant differences
